Laboratory results taken from ChEMBL document CHEMBL5579808, “Development of 1,5-diarylpyrazoles as EGFR/JNK-2 dual inhibitors: design, synthesis, moleecular docking, and bioactivity evaluation” (Bioorg Med Chem Lett, 2024).
Active and inactive are the calls of the source. No cut-off for these calls is given here.

How the values were obtained:
HeLa [1] = assay: Growth inhibition of human HeLa cells at 100 uM by WST-8 assay relative to control; type: functional; settings: read-out: GI
DLD-1 [2] = assay: Growth inhibition of human DLD-1 cells at 100 uM by WST-8 assay relative to control; type: functional; settings: read-out: GI
K562 [3] = assay: Growth inhibition of human K562 cells at 100 uM by WST-8 assay relative to control; type: functional; settings: read-out: GI
[4] = Growth inhibition of human SUIT-2 cells at 100 uM by WST-8 assay relative to control; type: functional; settings: read-out: GI
HepG2 [5] = assay: Growth inhibition of human HepG2 cells at 100 uM by WST-8 assay relative to control; type: functional; settings: read-out: GI
DLD-1 [6] = assay: Antiproliferative activity against human DLD-1 cells by WST-8 assay; type: functional, cell-based
HeLa [7] = assay: Antiproliferative activity against human HeLa cells by WST-8 assay; type: functional, cell-based
HepG2 [8] = assay: Antiproliferative activity against human HepG2 cells by WST-8 assay; type: functional, cell-based
[9] = biological target: Epidermal growth factor receptor (Mus musculus, UniProt Q01279); assay: Inhibition of recombinant mouse EGFR by ELISA
[10] = biological target: Mitogen-activated protein kinase 9 (Homo sapiens, UniProt P45984); assay: Inhibition of JNK2 (unknown origin) incubated for 90 mins by ELISA
K562 [11] = assay: Antiproliferative activity against human K562 cells by WST-8 assay; type: functional, cell-based
[12] = Antiproliferative activity against human SUIT-2 cells by WST-8 assay; type: functional, cell-based
HeLa [13] = assay: Induction of cell cycle arrest at G1 phase in human HeLa cells at IC50 incubated for 24 hrs by PI staining based flow cytometry (reference value: 68 %); type: functional
HeLa [14] = assay: Induction of cell cycle arrest at S phase in human HeLa cells at IC50 incubated for 24 hrs by PI staining based flow cytometry (reference value: 8 %); type: functional
HeLa [15] = assay: Induction of cell cycle arrest at G2 phase in human HeLa cells at IC50 incubated for 24 hrs by PI staining based flow cytometry (reference value: 7 %); type: functional
HeLa [16] = assay: Induction of apoptosis in human HeLa cells assessed as total cells at half of IC50 incubated for 24 hrs by Annexin V-FITC/PI staining based flow cytometry (reference value: 1.8 %); type: functional
HeLa [17] = assay: Induction of apoptosis in human HeLa cells assessed as early apoptotic cells at half of IC50 incubated for 24 hrs by Annexin V-FITC/PI staining based flow cytometry (reference value: 0 %); type: functional
HeLa [18] = assay: Induction of apoptosis in human HeLa cells assessed as late apoptotic cells at half of IC50 incubated for 24 hrs by Annexin V-FITC/PI staining based flow cytometry (reference value: 0 %); type: functional
HeLa [19] = assay: Induction of apoptosis in human HeLa cells assessed as necrotic cells at half of IC50 incubated for 24 hrs by Annexin V-FITC/PI staining based flow cytometry (reference value: 1.8 %); type: functional
HeLa [20] = assay: Induction of apoptosis in human HeLa cells assessed as total cells at 2 times IC50 incubated for 24 hrs by Annexin V-FITC/PI staining based flow cytometry (reference value: 1.8 %); type: functional
HeLa [21] = assay: Induction of apoptosis in human HeLa cells assessed as early apoptotic cells at 2 times IC50 incubated for 24 hrs by Annexin V-FITC/PI staining based flow cytometry (reference value: 0 %); type: functional
HeLa [22] = assay: Induction of apoptosis in human HeLa cells assessed as late apoptotic cells at 2 times IC50 incubated for 24 hrs by Annexin V-FITC/PI staining based flow cytometry (reference value: 0 %); type: functional
HeLa [23] = assay: Induction of apoptosis in human HeLa cells assessed as necrotic cells at 2 times IC50 incubated for 24 hrs by Annexin V-FITC/PI staining based flow cytometry (reference value: 1.8 %); type: functional
HeLa [24] = assay: Induction of cell cycle arrest at G1 phase in human HeLa cells at IC50 incubated for 48 hrs by PI staining based flow cytometry (reference value: 68 %); type: functional
HeLa [25] = assay: Induction of cell cycle arrest at S phase in human HeLa cells at IC50 incubated for 48 hrs by PI staining based flow cytometry (reference value: 8 %); type: functional
HeLa [26] = assay: Induction of cell cycle arrest at G2 phase in human HeLa cells at IC50 incubated for 48 hrs by PI staining based flow cytometry (reference value: 7 %); type: functional

Epidermal growth factor receptor, sequence (Q01279 whole entry): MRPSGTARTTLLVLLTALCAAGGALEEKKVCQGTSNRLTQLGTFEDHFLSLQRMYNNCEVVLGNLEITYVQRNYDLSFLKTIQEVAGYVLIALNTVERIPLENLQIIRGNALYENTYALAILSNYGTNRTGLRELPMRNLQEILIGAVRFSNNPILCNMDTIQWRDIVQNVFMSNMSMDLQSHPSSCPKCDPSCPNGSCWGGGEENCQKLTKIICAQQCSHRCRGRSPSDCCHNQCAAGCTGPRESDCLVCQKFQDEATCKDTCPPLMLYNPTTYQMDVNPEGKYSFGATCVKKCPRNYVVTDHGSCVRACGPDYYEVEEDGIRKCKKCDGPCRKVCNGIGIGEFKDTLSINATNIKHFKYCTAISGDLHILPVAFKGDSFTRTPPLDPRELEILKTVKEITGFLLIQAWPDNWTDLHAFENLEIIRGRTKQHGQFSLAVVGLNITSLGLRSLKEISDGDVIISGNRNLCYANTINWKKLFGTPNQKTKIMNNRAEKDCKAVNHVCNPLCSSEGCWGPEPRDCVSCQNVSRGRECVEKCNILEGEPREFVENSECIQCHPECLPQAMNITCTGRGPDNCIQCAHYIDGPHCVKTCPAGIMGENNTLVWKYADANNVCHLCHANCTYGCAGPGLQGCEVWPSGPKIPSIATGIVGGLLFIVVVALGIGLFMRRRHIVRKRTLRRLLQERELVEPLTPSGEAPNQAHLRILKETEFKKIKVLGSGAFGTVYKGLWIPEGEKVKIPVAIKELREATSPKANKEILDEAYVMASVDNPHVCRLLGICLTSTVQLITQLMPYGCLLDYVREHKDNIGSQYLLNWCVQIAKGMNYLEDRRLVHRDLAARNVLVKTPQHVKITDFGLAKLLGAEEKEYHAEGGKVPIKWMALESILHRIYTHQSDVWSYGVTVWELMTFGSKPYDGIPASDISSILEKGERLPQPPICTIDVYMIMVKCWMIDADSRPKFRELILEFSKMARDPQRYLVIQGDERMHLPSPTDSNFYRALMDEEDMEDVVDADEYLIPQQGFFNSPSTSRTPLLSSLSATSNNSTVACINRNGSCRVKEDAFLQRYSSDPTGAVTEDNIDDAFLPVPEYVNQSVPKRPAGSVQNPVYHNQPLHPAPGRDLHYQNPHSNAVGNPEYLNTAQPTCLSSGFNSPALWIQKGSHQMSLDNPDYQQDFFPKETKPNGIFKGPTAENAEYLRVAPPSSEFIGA

Row | IC50 (DLD-1 [6]) [µM] | IC50 (HeLa [7]) [µM] | IC50 (HepG2 [8]) [µM] | IC50 [9] [µM] | IC50 (K562 [11]) [µM] | SMILES | inhibition of growth at 100 µM (HeLa [1]) [%] | inhibition of growth at 100 µM (DLD-1 [2]) [%] | inhibition of growth at 100 µM (K562 [3]) [%] | inhibition of growth at 100 µM [4] [%] | inhibition of growth at 100 µM (HepG2 [5]) [%] | IC50 [12] [µM] | other results
1 | 22 | 63 | 10 | 110 | – | Cc1ccc(-c2cc(C(=O)Nc3ccc(S(C)(=O)=O)cc3)nn2-c2ccccc2)cc1 | 78 | 87 | 58 | 87 | 94 | – | IC50 [10]: > 200 µM
2 | 17 | 14 | 2.7 | 50 | 7.6 | COc1cc(C=O)ccc1OC(=O)c1cc(-c2ccc(C)cc2)n(-c2ccc(S(N)(=O)=O)cc2)n1 | 95 | 100 | 95 | 87 | 101 | 17 | Activity (HeLa [13]): 4%; Activity (HeLa [14]): 83%; Activity (HeLa [15]): 7%; Activity (HeLa [16]): 25%; Activity (HeLa [17]): 0.4%; Activity (HeLa [18]): 19%; Activity (HeLa [19]): 5.9%; IC50 [10]: 2 µM
3 | 16.1 | 16.7 | 3.6 | > 1000 | – | Cc1ccc(-c2cc(C(=O)Nc3ccc(S(N)(=O)=O)cc3)nn2-c2ccccc2)cc1 | 0 | 99 | 65 | 96 | 101 | 13 | inhibition [10]: inactive
4 | – | – | 5.9 | – | – | NS(=O)(=O)c1ccc(NC(=O)c2cc(-c3ccccc3)n(-c3ccccc3)n2)cc1 | 12 | 64 | 89 | 91 | 107 | 18 | –
5 | 5.7 | 16 | – | 1.7 | 21.8 | CS(=O)(=O)c1ccc(NC(=O)c2cc(-c3ccc(Cl)cc3)n(-c3ccccc3)n2)cc1 | 101 | 98 | 88 | 94 | 50 | 25 | Activity (HeLa [13]): 6%; Activity (HeLa [14]): 82%; Activity (HeLa [15]): 6%; Activity (HeLa [20]): 94%; Activity (HeLa [21]): 1.4%; Activity (HeLa [22]): 75%; Activity (HeLa [23]): 18%; IC50 [10]: > 200 µM
6 | – | – | – | – | – | COc1ccc(-c2cc(C(=O)Oc3ccc(C=O)cc3OC)nn2-c2ccccc2)cc1OC | 0 | 96 | 58 | 86 | 74 | – | –
7 | 30 | 0.1 | 22 | – | 13.3 | COc1cccc2c1C(=O)c1c(O)c3c(c(O)c1C2=O)C[C@@](O)(C(C)=O)C[C@@H]3O[C@H]1C[C@H](N)[C@H](O)[C@H](C)O1 [DAUNORUBICIN] | 100 | 84.2 | 100 | 92 | 100 | 9 | –
8 | 5.6 | 31 | 7.8 | > 1000 | 14.9 | COc1ccc(-c2cc(C(=O)Oc3ccc(C=O)cc3OC)nn2-c2ccc(S(N)(=O)=O)cc2)cc1 | 78 | 104 | 85 | 95 | 82 | 5 | IC50 [10]: 0.9 µM
9 | 5 | – | – | – | 17.1 | COc1cc(C=O)ccc1OC(=O)c1cc(-c2ccc(Cl)cc2)n(-c2ccc(S(N)(=O)=O)cc2)n1 | 51 | 97 | 85 | 94 | 54 | 49.8 | –
10 | – | – | – | – | – | COc1ccc(-c2cc(C(=O)Nc3ccc(S(N)(=O)=O)cc3)nn2-c2ccccc2)cc1 | 74 | 69 | 26 | 78 | 26 | – | –
11 | – | – | – | – | – | COc1ccc(-c2cc(C(=O)Oc3ccc(C=O)cc3OC)nn2-c2ccccc2)cc1 | 30 | 61 | 61 | 91 | 11 | – | –
12 | – | – | – | – | – | COc1ccc(-c2cc(C(=O)Nc3ccc(S(N)(=O)=O)cc3)nn2-c2ccccc2)cc1OC | 51 | 56 | 58 | 91 | 90 | – | –
13 | – | 15 | 8.9 | – | 14.8 | COc1cc(C=O)ccc1OC(=O)c1cc(-c2ccc(C)cc2)n(-c2ccccc2)n1 | 84 | 70 | 79 | 89 | 50 | – | Activity (HeLa [13]): 64%; Activity (HeLa [24]): 59%; Activity (HeLa [14]): 8%; Activity (HeLa [25]): 5%; Activity (HeLa [15]): 21%; Activity (HeLa [26]): 23%; Activity (HeLa [20]): 86%; Activity (HeLa [21]): 5.9%; Activity (HeLa [22]): 48%; Activity (HeLa [23]): 33%
14 | 33.1 | – | – | – | – | CS(=O)(=O)c1ccc(NC(=O)c2cc(-c3ccccc3)n(-c3ccccc3)n2)cc1 | 28 | 81 | 32 | 86 | 41 | – | –
15 | – | 27 | 38 | – | 17.2 | COc1cc(C=O)ccc1OC(=O)c1cc(-c2ccccc2)n(-c2ccc(S(N)(=O)=O)cc2)n1 | 79 | 100 | 82 | 95 | 84 | – | –
16 | – | – | – | – | – | COc1ccc(-c2cc(C(=O)Oc3ccc(C=O)cc3OC)nn2-c2ccc(S(N)(=O)=O)cc2)cc1OC | 70 | 75 | 77 | 66 | 92 | – | –
17 | – | – | – | – | – | COc1ccc(-c2cc(C(=O)Nc3ccc(S(C)(=O)=O)cc3)nn2-c2ccccc2)cc1OC | 19 | 74 | 62 | 89 | 37 | – | –
18 | – | – | – | – | – | COc1cc(C=O)ccc1OC(=O)c1cc(-c2ccc(Cl)cc2)n(-c2ccccc2)n1 | 51 | 74 | 66 | 92 | 20 | – | –
19 | – | – | – | – | – | COc1cc(C=O)ccc1OC(=O)c1cc(-c2ccccc2)n(-c2ccccc2)n1 | 31 | 71 | 52 | 91 | 60 | – | –
20 | – | – | – | – | – | COc1ccc(-c2cc(C(=O)Nc3ccc(S(C)(=O)=O)cc3)nn2-c2ccccc2)cc1 | 76 | 64 | 41 | 90 | 62 | 41 | –
21 | 29.8 | – | – | 2.7 | 15.4 | NS(=O)(=O)c1ccc(NC(=O)c2cc(-c3ccc(Cl)cc3)n(-c3ccccc3)n2)cc1 | 0 | 94 | 86 | 99 | 27 | 49.7 | IC50 [10]: 3 µM

Row | SMILES | IC50 (DLD-1 [6]) [µM] | IC50 (HeLa [7]) [µM] | IC50 (HepG2 [8]) [µM] | IC50 [9] [µM] | IC50 (K562 [11]) [µM] | inhibition of growth at 100 µM (HeLa [1]) [%] | inhibition of growth at 100 µM (DLD-1 [2]) [%] | inhibition of growth at 100 µM (K562 [3]) [%] | inhibition of growth at 100 µM [4] [%] | inhibition of growth at 100 µM (HepG2 [5]) [%] | IC50 [12] [µM] | other results
22 | CNC(=O)c1cc(Oc2ccc(NC(=O)Nc3ccc(Cl)c(C(F)(F)F)c3)cc2)ccn1 [SORAFENIB] | – | – | – | 3.5 | – | – | – | – | – | – | – | –
